Measured values taken from patent US20240101551A1, “CRYSTAL FORM AND SALT FORM OF BROMINE DOMAIN PROTEIN INHIBITOR AND PREPARATION METHOD THEREFOR” (CHIA TAI TIANQING PHARMACEUTICAL GROUP CO., LTD., priority 2020, published 2024).

Columns and labels:
[1] = Study on stability under influencing factors (high temperature, high humidity, light) of the crystal forms; assay type: physicochemical
Protocol: In order to evaluate the solid stability of the crystal forms of the present application, the stability of each of the crystal form I, the crystal form A, the crystal form D, the crystal form E and the crystal form F under influencing factors (high temperature, high humidity and light) was investigated. Each of the crystal forms was stored under the high temperature condition (60±2° C., open (weighing bottle)), and the high humidity condition (room temperature, 92.5%±5% RH, open (weighing bottle) and packaged) for 5 days, 10 days and 30 days, and under the ICH light condition (5500 Lux, 0.9 w/m^2, closed (weighing bottle) and packaged) for 5 days and 10 days. The inner packaging material of the packaged sample was a medical low-density polyethylene bag, and the outer packaging material is a medical polyester/aluminum/polyethylene composite bag. The samples after the storage were characterized by properties, purity (HPLC), crystal form (XRD) and water content to detect the changes in the crystal form and purity. The results are shown in Tables 8-12 (“^#” indicates the ICH condition).

[2] = Animal pharmacokinetic study; assay type: in vivo, rats
Protocol: Three healthy adult male rats that obtained from Beijing Vital River Laboratory Animal Technology Co., Ltd were used for the animal pharmacokinetic experiment. The compound of formula (I) was suspended in 2% absolute ethanol, 5% tween 80, 20% polyethylene glycol 400, and 73% (5% hydroxypropylmethyl cellulose in water) (V/V/V/V) at a concentration of 1 mg/mL. The administration volume was 5 mL/kg, and animals were treated with a single intragastric administration at a dose of 5 mg/kg Animals were fasted overnight prior to the experiment, and the fasting time was from 10 hours before administration to 4 hours after administration. Blood was sampled at 0.25, 0.5, 1, 2, 4, 6, 8 and 24 hours after administration Animals were lightly anesthetized with isoflurane, and approximately 0.4 mL of whole blood was collected from the orbital venous plexus using a glass blood collection tube, and placed in a heparin anticoagulation tube. The sample was centrifuged at 4200 rpm for 5 minutes at 4° C., and then the plasma was transferred to a centrifuge tube and stored at −80° C. until analyzed. In the plasma sample analysis, test compound and internal standard (warfarin or propranolol) were extracted from rat plasma by acetonitrile protein precipitation, and the extracts were analyzed by LC/MS/MS. The measured plasma concentration-time data of the individual animals were analyzed using a non-compartmental model of WinNonlin (version no. 5.2.1; Pharsight) software to give pharmacokinetic parameters as shown in Table 17 below: the maximum (peak) plasma drug concentration C,max; the time to peak Tmax; the half-life T1/2 and the area under the plasma concentration-time curve extrapolated to infinity AUC0-inf.

BRD4 (BD2) = BRD4 (BD2) (Homo sapiens (Human), UniProt O60885); assay: In vitro enzymatic activity assay on BRD4 (BD2), HTRF; assay type: binding; conditions: GST-BRD4 (BD2, 349-460 aa)
Protocol: In the present application, the IC50 value of the compound of formula (I) in inhibiting BRD4 (BD2) enzyme binding reaction were determined by homogeneous time resolved fluorescence (HTRF). The compound of formula (I) was serially diluted 5-fold with 100% DMSO starting from 1 mM (7 concentrations in total), and then 2 μL of the compound of formula (I) at each concentration was added to 18 μL of a reaction buffer (20 mM HEPES pH 7.5, 150 mM NaCl, 5 mM DTT, 0.005% Tween 20, and 100 μg/mL BSA) for dilution. After being mixed well, 2 μL of the compound of formula (I) at each concentration was added to 48 μL of the above reaction buffer for dilution, and mixed well (final concentration of the compound of formula (I) in DMSO: 0.1%). […] After being incubated in the incubator for another 1 hour, the fluorescence values (excited at 320 nm, emitted light at 665 nm and 620 nm being detected, and the ratio of the two being the enzyme binding signal) were read on Envision (purchased from PerkinElmer). The binding strength of the compound of formula (I) to BRD4 (BD2) protein was determined respectively at 7 concentrations, and the data were calculated using GraphPad Prism software to obtain the IC50 value of the compound of formula (I).

BRD4 (BD1) = BRD4 (BD1) (Homo sapiens (Human), UniProt O60885); assay: In vitro enzymatic activity assay on BRD4 (BD1), HTRF; assay type: binding; conditions: GST-BRD4 (BD1, 44-168 aa)
Protocol: In the present application, the IC50 value of the compound of formula (I) in inhibiting BRD4 (BD1) enzyme binding reaction were determined by homogeneous time resolved fluorescence (HTRF). The compound of formula (I) was serially diluted 5-fold with 100% DMSO starting from 0.2 mM (7 concentrations in total), and then 2 μL of the compound of formula (I) at each concentration was added to 48 μL of a reaction buffer (20 mM HEPES pH 7.5, 150 mM NaCl, 5 mM DTT, 0.005% Tween 20, and 100 μg/mL BSA) for dilution, and mixed well. 2.5 μL of the resulting mixture was added to a 384-well plate (OptiPlate-384, purchased from PerkinElmer), then 5 μL of GST-BRD4 (BD1, 44-168 aa) (final concentration: 1 nM) was added, and the resulting mixture was centrifuged, and fully mixed. […] After being incubated in the incubator for another 1 hour, the fluorescence values (excited at 320 nm, emitted light at 665 nm and 620 nm being detected, and the ratio of the two being the enzyme binding signal) were read on Envision (purchased from PerkinElmer). The binding strength of the compound of formula (I) to BRD4 (BD1) protein was determined respectively at 7 concentrations, and the data were calculated using GraphPad Prism software to obtain the ICso value of the compound of formula (I).

[3] = 92.5% RH, room temperature, open, 10 days
[4] = 92.5% RH, room temperature, open, 30 days
[5] = Light (ICH, 5500 Lux), closed, 5 days
[6] = Light (ICH, 5500 Lux), closed, 10 days
[7] = rat, po, male rats, single intragastric administration, 5 mg/kg, plasma

Impurity content ([1]; 60° C., open, 5 days) [%] | Crystal form change ([1]; 60° C., open, 10 days) | Impurity content ([1]; 60° C., open, 10 days) [%] | Crystal form change ([1]; 60° C., open, 30 days) | Impurity content ([1]; 60° C., open, 30 days) [%] | Crystal form change ([1]; Light (ICH), packaged, 10 days) | Impurity content ([1]; Light (ICH), packaged, 10 days) [%] | Water content ([1]; Light (ICH), packaged, 10 days) [%] | Impurity content [1, 5] [%] | Crystal form change [1, 6] | Impurity content [1, 6] [%] | Water content [1, 6] [%] | Impurity content ([1]; starting crystal form) [%] | Water content ([1]; starting crystal form) [%] | SMILES | also measured
0.19 | Unchanged | 0.27 | Unchanged | 0.44 | Unchanged | 0.08 | 1.2 | 0.11 | Unchanged | 0.09 | 1.1 | 0.05 | 1.4 | Cn1cc(-c2nc(N=S(C)(C)=O)ccc2Oc2ccc(F)cc2F)c2cc[nH]c2c1=O [crystal form D] | Water content ([1]; 60° C., open, 10 days): 1.0%; Water content ([1]; 60° C., open, 30 days): 0.68%; Crystal form change ([1]; 92.5% RH, packaged, 30 days): Unchanged; Impurity content ([1]; 92.5% RH, packaged, 30 days): 0.12%; Water content ([1]; 92.5% RH, packaged, 30 days): 1.0%; Impurity content ([1]; 92.5% RH, room temperature, open, 5 days): 0.07%; Crystal form change [1, 3]: Unchanged; Impurity content [1, 3]: 0.06%; Water content [1, 3]: 2.0%; Crystal form change [1, 4]: Unchanged; Impurity content [1, 4]: 0.07%; Water content [1, 4]: 1.9%
– | – | – | – | – | – | – | – | – | – | – | – | – | – | Cn1cc(-c2nc(N=S(C)(C)=O)ccc2Oc2ccc(F)cc2F)c2cc[nH]c2c1=O [Compound of formula (I), 4-{3-(2,4-difluorophenoxy)-6-{[dimethyl(oxo)-λ^6-sulfaneylidene]amino}-pyridin-2-yl}-6-methyl-1,6-dihydro-7H-pyrrolo[2,3-c]pyridin-7-one] | AUC(0-inf) [2, 7]: 3470 ng·h/mL; Cmax [2, 7]: 372 ng/mL; Tmax [2, 7]: 2.67 h; half-life [2, 7]: 5.25 h; Pharmacokinetic properties (conclusion) ([2]; rats, 5 mg/kg intragastric): good pharmacokinetic properties; IC50 (BRD4 (BD2)): 250 pM; IC50 (BRD4 (BD1)): 640 pM
0.18 | Unchanged | 0.20 | Unchanged | 0.22 | – | – | – | – | – | – | – | 0.17 | – | Cn1cc(-c2nc(N=S(C)(C)=O)ccc2Oc2ccc(F)cc2F)c2cc[nH]c2c1=O [crystal form F] | –
0.20 | Unchanged | 0.21 | Unchanged | 0.21 | – | – | – | – | – | – | – | 0.18 | – | Cn1cc(-c2nc(N=S(C)(C)=O)ccc2Oc2ccc(F)cc2F)c2cc[nH]c2c1=O [crystal form E] | –
– | – | – | – | – | Unchanged | 1.32 | 6.6 | 1.32 | Unchanged | 1.35 | 8.1 | 1.30 | 5.8 | Cn1cc(-c2nc(N=S(C)(C)=O)ccc2Oc2ccc(F)cc2F)c2cc[nH]c2c1=O [crystal form A] | –
